Assay results reported in ChEMBL document CHEMBL3507680, “University of Dundee, Gates Library screen for HepG2 cell viability”.

Assay: Human HepG2 cell viability assay in 384 well format
Type: toxicity, cell-based
Parameters: dose 125 nL, time 70.5 hour; cytotoxicity at 70.5 h: concentration not given beside the values
Conditions: HepG2 cells, read-out: Inhibition

SMILES | cytotoxicity at 70.5 h [%]
CNCC(=O)Nc1cccc(-c2cnc(NCCO)nc2)c1 | -1.04
NCc1ccc(Oc2cccc(Cl)c2Cl)cc1 | 14.7
CN(Cc1ccc2c(c1)OCO2)C(=O)c1ccc(C2CCCO2)s1 (configuration not stated) | -6.85
O=C(NCCC1CCN(CC(F)(F)F)CC1)C1CCCOC1 (configuration not stated) | 3.94
O=S(=O)(c1c(Cl)nc2sccn12)N1CCCC2(CCNC2)C1 (configuration not stated) | -7.18
COc1ccc(CN2C[C@@H]3COC[C@H](N4CCN(C)CC4)[C@@H]3C2)cc1 | -5.19
Cc1ccc(CN2CCO[C@H]3[C@@H](OCc4cccnc4)CC[C@@H]32)o1 | -14.9
COc1ccc(-c2noc(CCC(=O)N3CCOCC3(C)C)n2)cc1 | -3.78
CNc1cc(CCNC(=O)c2cccnc2)nc(-c2ccncc2)n1 | -7.53
O=C(CNc1cc2c(cc1Cl)OCCCO2)NCc1ccc(F)cc1 | -4.01
OCCN1CCN(Cc2coc(-c3cccc(F)c3)n2)CC1 | -7.98
O=C(c1cncs1)N1CCOC(c2cc(CCO)[nH]n2)C1 (configuration not stated) | -7.42
COCC(C)N(C)C(=O)NC1CCN(c2ncccn2)CC1 (configuration not stated) | 7.61
O=C(c1ccc2c(c1)COC2)N1CCC(Nc2cccnn2)CC1 | -1.47
CCc1ccc(CN(C)C(=O)c2cnc3c(c2)nc(N)n3CC)nc1 | -8.01
Cc1cc(NC(=O)N2CCN(c3nc(C)c(C)s3)CC2)no1 | 21.7
CC(C)N(C)S(=O)(=O)c1ccc2c(c1)CCN(C(=O)c1ccccn1)C2 | 22.8
O=C(c1sccc1Cl)N1CCC(Cn2cc(CO)nn2)CC1 | -4.2
COC(=O)CNC(=O)C(C)Oc1ccccc1C(F)(F)F (configuration not stated) | -3.31
CN(C(=O)c1ccncc1)c1ccccc1S(C)(=O)=O | -2.3
O=C(Cc1ccc2c(c1)CCCC2)N[C@@H]1CC[C@@H](n2ccnc2)[C@@H]1O | -3.88
Cc1nc(C)n(CC2CCCN(Cc3nnc(-c4ccco4)o3)C2)n1 (configuration not stated) | -2.38
O=C(CN1CCc2c(ncn2C2CC2)C1)NC1CCOCC1 | -10.3

SMILES | cytotoxicity at 70.5 h [%]
O=C(c1cc(-c2cccs2)nc2ccccc12)N1CCN(CCO)CC1 | 0.548
O=C(CC1CCCC1)N[C@H]1CN(Cc2c[nH]cn2)C[C@@H]1C1CC1 | 20.4
CCOc1ccc(N(CCC#N)C(=O)c2ccnc(SC)c2)cc1 | 9.66
OCC1CCCN1c1cc(NCCc2c[nH]c3ccccc23)ncn1 (configuration not stated) | 1.16
Cc1nn(C)c2nc(N3CCCCC3c3ccc(F)cc3)sc12 (configuration not stated) | 0.992
CCOCCC(=O)Nc1cc(C)cnc1OC | 14.7
CCN1C(=O)C[C@@H]2[C@@H]1CCN2S(=O)(=O)c1ccc(OC)cc1 | 9.29
CN1CC[C@]2(CN(C(=O)[C@H]3CCCO3)C[C@H]2c2ccccc2)C1=O | -2.45
O=C1CCCN1CCCC(=O)N1CCCCC1c1ccc(F)cc1 (configuration not stated) | 2.07
Cn1cc(CN2CCC[C@]3(C[C@H](Oc4ccccn4)CO3)C2)cn1 | -7.75
Fc1ccc(CN2CCC(c3noc(-c4cnccn4)n3)CC2)cc1F | -1.05
CCn1nc(C)c(C(=O)Nc2ccc3c(c2)C(C)(C)C(=O)N3C)c1C | -0.0352
O=C(NCCCn1ccnc1)N1CCN(c2cccs2)CC1 | -8.6
Cc1cc(CN(C)C(=O)c2ccnc(N(C)C)c2)no1 | -7.52
CNS(=O)(=O)c1ccc(CNC(=O)N(C)C(C)COC)cc1 (configuration not stated) | -97.7
O=S(=O)(Nc1ccc(N2CCOCC2)cc1)c1cccc(F)c1 | -1.37
COc1ccccc1Oc1ncccc1CNC(=O)C(C)N1CCCC1 (configuration not stated) | -1.98
Cc1cc(CNc2ccc3nc(C4CC4)sc3c2)no1 | -9.59
Cc1ccc(CN2CCC3(CC(C(=O)NCC4CC4)=NO3)C2)cc1C (configuration not stated) | 27.5
CCOC(=O)CNC(=O)NCc1cc(C)n(-c2ccccc2OC)c1C | 14.4
O=C(O)[C@@H]1CN(Cc2cnc(C3CCCCC3)nc2)C[C@H]1C1CC1 | 10.9
CNc1nc2c(s1)C(c1cccc(F)c1F)CC(=O)N2 (configuration not stated) | -11.9
Cc1cc(F)cc(S(=O)(=O)Nc2ccn(CCCC#N)n2)c1 | -9.51

SMILES | cytotoxicity at 70.5 h [%]
O=C(CN1CCCC(CO)C1)NCCOc1cccc(Cl)c1 (configuration not stated) | 27.5
CCS(=O)(=O)N1CCC(c2nnc(CN3CCOCC3)n2C)CC1 | -2.17
O=C(c1nn(-c2ccccc2F)cc1O)N1CCCSCC1 | 2.69
CC1CN(C2CCN(Cc3nccn3CC(F)(F)F)CC2)CCO1 (configuration not stated) | -9.54
CCc1nc2n(n1)CC(NCc1nc(Cc3ccccc3)no1)CC2 (configuration not stated) | 25.4
O=C(C1CCOCC1)N1CCO[C@H]2[C@H](Oc3ccccn3)CC[C@@H]21 | 13.9
c1ccc(C2CCCN(c3cncc(-n4cccn4)n3)CC2)cc1 (configuration not stated) | -9.13
COc1ccc(-n2ccc(CNCc3ccc(OC)c(O)c3)n2)cc1 | 2.11
O=S(=O)(NCCCN1CCCC1)c1cc(F)cc(F)c1 | 27.2
COc1ccc2nnc(CCCC(=O)NCc3ccccc3F)n2n1 | 21.9
Cc1ccnc(N2CCN(C[C@]3(O)CCCN4CCCC[C@@H]43)CC2)c1 | 1.52
C1CN(CCN2CCOCC2)CCN1 | -0.136
O=C(c1ccncc1)N1CCC(c2nc(O)cc(-c3ccncc3)n2)C1 (configuration not stated) | -12.6
COC[C@@H]1CCC[C@]12CN(S(=O)(=O)c1cccs1)CCO2 | -4.17
CNC(=O)c1cc(NC(=O)NCC2CCS(=O)(=O)C2)ccc1OC (configuration not stated) | 19.9
O=C(c1ccc[nH]1)N1CCc2cc(S(=O)(=O)N3CCOCC3)ccc2C1 | 50.8
CC(C)(C)CC(=O)NC(C)(C(N)=O)c1cccc(Cl)c1 (configuration not stated) | 17.3
COc1ccc(CC(=O)N2CCc3nnc(N(C)C)cc3C2)cc1F | -2.52
CN(Cc1cn2ccccc2c1C#N)C1CCCN(c2cccnn2)C1 (configuration not stated) | -11.9
CN1CCN(S(=O)(=O)c2ccc(Sc3nccn3C)nc2)CC1 | 21.6
CCOC(C)C(=O)Nc1cc(S(=O)(=O)NC2CC2)ccc1F (configuration not stated) | 6.35
CO[C@@H]1CCC[C@@H](N(C)C(=O)c2cn3cc(C)ccc3n2)[C@H]1O | -8.11
O=C(c1ccncc1)N1C[C@@H]2CC[C@H](C1)N(C(=O)N1CCOCC1)C2 | -7.89

SMILES | cytotoxicity at 70.5 h [%]
COC(=O)c1ccc(/C=C/c2ncc(C(=O)O)s2)cc1 | 3.38
COCC1CC2(CCN(C(=O)c3cccn3C)CC2)CN1C(C)C (configuration not stated) | -0.557
O=C(O)c1cc2c(nc1-c1ccncc1)CCN(Cc1ccoc1)CC2 | -7.98
CC(C)c1cc(NCc2csc(C(C)C)n2)nc(N)n1 | 24.3
COc1ccc(C(CNS(=O)(=O)c2cn(C)nc2C)N2CCCC2)cc1 (configuration not stated) | 26.7
COCCN1CCN(c2ccc(C)nn2)Cc2cccnc21 | -7.28
COc1c(C2CCCN2Cc2nnc(C3CC3)n2C)c(C)nn1C (configuration not stated) | -5.73
O=C1N(c2cccc(F)c2)Cc2nc(=O)n(Cc3ccccc3Cl)n21 | -18.7
NC(=O)CCOc1nc(-c2ccccc2Cl)no1 | 16.5
Cc1c[nH]nc1C1CCCN(C(=O)c2c(C)noc2C)C1 (configuration not stated) | -1.16
Cc1noc(OCCOc2cccc(C#N)c2)n1 | -3.56
CCN1CCOCC2(C1)CN(C(=O)c1c(C)noc1C)CCO2 (configuration not stated) | -3.94
CC(=O)NCc1noc2c1CN(CCN1CCCC1)CC2 | -8.27
Cc1cc(N2CCC(NC(=O)C3CC3)CC2)nc(-c2ccncc2)n1 | -5.8
CCc1nnc2n1CCN(C(=O)c1ccc3c(c1)nnn3C)C2 | -0.825
c1ccc(CN2CCC(NCCSc3cnn[nH]3)C2)cc1 (configuration not stated) | -3.66
O=C1COC2(CCN(c3ncccn3)CC2)CN1Cc1ccccn1 | -5.98
CC(C)N(C)C(=O)C1=NOC2(CCN(C(=O)c3ccc(Cl)cc3)C2)C1 (configuration not stated) | -0.00349
COc1ccc([C@@H]2CN(C(=O)CCC(F)(F)F)C[C@H]2NC(C)=O)cc1 | -5.27
COC1CN(C(=O)Nc2ccccc2)CCC(=O)N(C)c2ccccc21 (configuration not stated) | -0.759
CC(C)=CCN1C(=O)[C@H]2CC[C@@H]1CN(c1ncccc1F)C2 | -22.9
COCc1cc(NCCc2ccc(F)cc2)n2nccc2n1 | -0.706
Cc1csc(CNC(=O)N(C)Cc2cnn(C)c2)n1 | -15.5

SMILES | cytotoxicity at 70.5 h [%]
CC(=O)N1CCc2ncn(C)c2C1C(=O)N1CCCC1 (configuration not stated) | -6.96
c1ccc(CNC2CCc3ncnn3C2)nc1 (configuration not stated) | 6.6
COc1ccc(CN(C)C(=O)NC(C)c2nncn2C)cc1F (configuration not stated) | -6.21
CC(=O)N1CCCC1c1nc(C)no1 (configuration not stated) | 15.6
Cc1csc2c(C3CCCN(C(=O)CCn4cncn4)C3)nc(C)n12 (configuration not stated) | 1.05
O=C(Nc1ccccc1OCCc1ccccn1)N1CC[C@@H](O)C1 | -31
COc1ccc(N2CCN(C(=O)C(C)n3cc(Br)cn3)CC2)cc1 (configuration not stated) | -1.02
CCc1nc(CN2CCCCC2C(N)=O)cs1 (configuration not stated) | -2.28
COc1cccc(CNCc2nc3ccccc3c(=O)[nH]2)c1 | 1.76
CC(Cc1ccc(Cl)cc1)N(C)C(=O)NCCS(C)(=O)=O (configuration not stated) | 18.5
Cc1c(F)cc(C(=O)NCC(F)(F)F)cc1NCC(=O)N(C)C | 10.3
CC(C)CCC(=O)N(C)CC(=O)Nc1ccc(Br)cn1 | 43.7
CC(CNC(=O)c1nc(N2CCOCC2)ncc1Cl)c1ccccc1 (configuration not stated) | 7.86
CCCOCC(=O)N1CCc2nc(NC)nc(C(=O)N3CCCC3)c2C1 | -4.23
O=C(Nc1ccc(F)cc1)C1CNCCN1C(=O)CCO (configuration not stated) | 8.54
COCC(=O)NCCn1nc(-c2cc(C)oc2C)ccc1=O | -2.12
Cc1cccc(N2CCN(CCCNC(=O)c3nccn3C)CC2)c1 | -3.1
CCCN1CCN(C(=O)c2cc[nH]n2)[C@H]2CS(=O)(=O)C[C@H]21 | -11.3
CS(=O)(=O)CCCNC(=O)NC1CC(c2cccc(Cl)c2)C1 (configuration not stated) | -3.19
CC(C)N(C)S(=O)(=O)c1ccc2c(c1)CCN(C(=O)c1cscn1)C2 | -20.3
